Test results from ChEMBL document CHEMBL1201862, “PubChem BioAssay data set” (2004).
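Assay format: 96-well plates, 48-hour exposure. At the GI50, growth is halved.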 The source made the active and inactive calls. Cut-off read from the data, not from the text of the source: active = GI50 up to about 1.1 µM and inactive = higher.

Key:
Experiment in all cases: NCI anticancer screen, dose series, 48 h
DMS-273 = tested on: DMS-273
SNB-78 = tested on: SNB-78
DMS-114 = tested on: DMS-114
XF498 = tested on: XF498
LXFL 529 = tested on: LXFL 529
M19-MEL = tested on: M19-MEL
DLD-1 = tested on: DLD-1
RXF 631 = tested on: RXF 631
KM-20L2 = tested on: KM-20L2

Oc1cc(-c2cccc(Br)c2)nc2cc3c(cc12)OCO3
GI50 (DMS-273): 4.37 µM (inactive)
GI50 (SNB-78): 3.37 µM (inactive)
GI50 (DMS-114): 2.85 µM (inactive)
GI50 (XF498): 4.16 µM (inactive)
GI50 (LXFL 529): 2.26 µM (inactive)
GI50 (M19-MEL): 4.37 µM (inactive)
GI50 (DLD-1): 3.16 µM (inactive)

C/N=C(\SC)N(C)c1nc(=[N+](C)C)ss1.[O-][Cl+3]([O-])([O-])[O-]
GI50 (RXF 631): 2.28 µM (inactive)
GI50 (DMS-273): > 100 µM (inactive)
GI50 (SNB-78): > 100 µM (inactive)
GI50 (XF498): 32.6 µM (inactive)
GI50 (LXFL 529): 58.6 µM (inactive)

COc1ccc(/C=C2\CCC(CCN3CCOCC3)C2=O)cc1 (stereo not drawn)
GI50 (DMS-273): > 100 µM (inactive)
GI50 (SNB-78): > 100 µM (inactive)
GI50 (DMS-114): > 100 µM (inactive)
GI50 (XF498): > 100 µM (inactive)
GI50 (LXFL 529): > 100 µM (inactive)
GI50 (M19-MEL): > 100 µM (inactive)
GI50 (KM-20L2): > 100 µM (inactive)
GI50 (DLD-1): > 100 µM (inactive)

CCNC(=O)O/N=C1/C=C2CC[C@@H]3C(CC[C@@]4(C)C3CC[C@@H]4OC(=O)NCC)[C@@]2(C)CC1 (stereo partly drawn)
GI50 (DMS-273): 1.99 µM (inactive)
GI50 (SNB-78): 2.67 µM (inactive)
GI50 (DMS-114): 1.66 µM (inactive)
GI50 (LXFL 529): 1.79 µM (inactive)
GI50 (M19-MEL): 3.13 µM (inactive)
GI50 (KM-20L2): 2.28 µM (inactive)
GI50 (DLD-1): 5.9 µM (inactive)

Cc1ccc(NC(=O)SCCC(=O)O)cc1NC(=O)SCCC(=O)O
GI50 (DMS-273): > 10 µM (inactive)
GI50 (SNB-78): > 100 µM (inactive)
GI50 (DMS-114): > 100 µM (inactive)
GI50 (LXFL 529): > 100 µM (inactive)
GI50 (KM-20L2): > 100 µM (inactive)
GI50 (DLD-1): > 10 µM (inactive)

Cc1ccc(S(=O)OC2c3ccccc3Cc3ccccc32)cc1 (stereo not drawn)
GI50 (RXF 631): 17.2 µM (inactive)
GI50 (DMS-273): 17.5 µM (inactive)
GI50 (SNB-78): 19.9 µM (inactive)
GI50 (DMS-114): 20.2 µM (inactive)
GI50 (XF498): 15.2 µM (inactive)
GI50 (LXFL 529): 16.4 µM (inactive)
GI50 (M19-MEL): 21.1 µM (inactive)
GI50 (KM-20L2): 19.9 µM (inactive)
GI50 (DLD-1): 22.9 µM (inactive)

Cn1c(=O)c2nc(-c3ccc(Cl)cc3)oc2n(C)c1=O
GI50 (DMS-273): > 100 µM (inactive)
GI50 (SNB-78): > 100 µM (inactive)
GI50 (DMS-114): > 100 µM (inactive)
GI50 (XF498): > 100 µM (inactive)
GI50 (LXFL 529): > 100 µM (inactive)
GI50 (M19-MEL): > 100 µM (inactive)
GI50 (KM-20L2): > 100 µM (inactive)
GI50 (DLD-1): > 100 µM (inactive)

CCOc1c(Cc2ccccc2)c(=O)n2c3ccccc3n3c(=O)n(C)c(=O)c1c23
GI50 (RXF 631): > 100 µM (inactive)
GI50 (DMS-273): > 100 µM (inactive)
GI50 (SNB-78): > 100 µM (inactive)
GI50 (DMS-114): > 100 µM (inactive)
GI50 (XF498): > 100 µM (inactive)
GI50 (LXFL 529): > 100 µM (inactive)
GI50 (M19-MEL): > 100 µM (inactive)
GI50 (DLD-1): > 100 µM (inactive)

CC(C)c1cccc(C(C)C)c1NC(=O)C(=O)C1SC(=S)NC1=O (stereo not drawn)
GI50 (RXF 631): > 100 µM (inactive)
GI50 (DMS-273): > 100 µM (inactive)
GI50 (SNB-78): > 100 µM (inactive)
GI50 (XF498): > 100 µM (inactive)
GI50 (LXFL 529): > 100 µM (inactive)
GI50 (M19-MEL): > 100 µM (inactive)
GI50 (KM-20L2): > 100 µM (inactive)
GI50 (DLD-1): > 100 µM (inactive)

O=c1cccccc1NCCCCCCCNc1cccccc1=O
GI50 (RXF 631): 8.02 µM (inactive)
GI50 (DMS-273): 33.3 µM (inactive)
GI50 (SNB-78): 47.8 µM (inactive)
GI50 (XF498): 10.6 µM (inactive)
GI50 (LXFL 529): 16.9 µM (inactive)
GI50 (M19-MEL): 24 µM (inactive)
GI50 (KM-20L2): 38.1 µM (inactive)
GI50 (DLD-1): 42.6 µM (inactive)

Cc1[nH]c2ccccc2c1CC/C(=N\Nc1ccccc1)c1ccccc1
GI50 (RXF 631): > 100 µM (inactive)
GI50 (DMS-273): > 100 µM (inactive)
GI50 (SNB-78): > 100 µM (inactive)
GI50 (XF498): 78.2 µM (inactive)
GI50 (KM-20L2): > 100 µM (inactive)
GI50 (DLD-1): > 100 µM (inactive)

CCCCCCCC/C=C1\CCC(CN2CCOCC2)C1=O (stereo not drawn)
GI50 (RXF 631): 8.95 µM (inactive)
GI50 (SNB-78): 10.5 µM (inactive)
GI50 (DMS-114): 6.41 µM (inactive)
GI50 (XF498): 14.2 µM (inactive)
GI50 (LXFL 529): 4.54 µM (inactive)
GI50 (M19-MEL): 8.65 µM (inactive)
GI50 (KM-20L2): 16.3 µM (inactive)
GI50 (DLD-1): 2.8 µM (inactive)

OC[C@@H]1CC#C/C=C\C#CC[C@@H]1CO
GI50 (SNB-78): > 100 µM (inactive)
GI50 (DMS-114): > 100 µM (inactive)
GI50 (XF498): 0.471 µM (active)
GI50 (M19-MEL): > 100 µM (inactive)
GI50 (DLD-1): > 100 µM (inactive)

COC(=O)NN1C(C)=C(C(=O)OC)C2(C#N)C(C(=O)OC)=C(C)N(NC(=O)OC)C12N (stereo not drawn)
GI50 (RXF 631): > 100 µM (inactive)
GI50 (DMS-273): > 100 µM (inactive)
GI50 (SNB-78): > 100 µM (inactive)
GI50 (DMS-114): > 100 µM (inactive)
GI50 (XF498): > 100 µM (inactive)
GI50 (LXFL 529): > 100 µM (inactive)
GI50 (M19-MEL): > 100 µM (inactive)
GI50 (KM-20L2): > 100 µM (inactive)
GI50 (DLD-1): > 100 µM (inactive)

N=C(N)N/N=C(/CCN1CCCC1)CC(c1ccccc1)c1c(O)c2ccccc2oc1=O (stereo not drawn)
GI50 (RXF 631): > 100 µM (inactive)
GI50 (DMS-114): > 100 µM (inactive)
GI50 (XF498): > 100 µM (inactive)
GI50 (LXFL 529): > 100 µM (inactive)
GI50 (M19-MEL): > 100 µM (inactive)
GI50 (KM-20L2): > 100 µM (inactive)
GI50 (DLD-1): > 100 µM (inactive)

CN(C)CC1CCCC/C1=N/OC(=O)c1ccc(Cl)cc1 (stereo not drawn)
GI50 (DMS-273): > 100 µM (inactive)
GI50 (SNB-78): > 100 µM (inactive)
GI50 (XF498): > 100 µM (inactive)
GI50 (LXFL 529): > 100 µM (inactive)
GI50 (M19-MEL): > 100 µM (inactive)
GI50 (KM-20L2): > 100 µM (inactive)
GI50 (DLD-1): > 100 µM (inactive)

N#CC(C(=O)C(=O)Nc1ccc(Cl)c(Cl)c1)c1ccc(Cl)cc1 (stereo not drawn)
GI50 (DMS-273): > 100 µM (inactive)
GI50 (SNB-78): > 100 µM (inactive)
GI50 (DMS-114): 22.9 µM (inactive)
GI50 (XF498): 61 µM (inactive)
GI50 (LXFL 529): 77.1 µM (inactive)
GI50 (KM-20L2): > 100 µM (inactive)
GI50 (DLD-1): 44.1 µM (inactive)

CCCCCCCCCOC(=S)NCCCCC
GI50 (DMS-273): 25.5 µM (inactive)
GI50 (SNB-78): 40.6 µM (inactive)
GI50 (DMS-114): 21.7 µM (inactive)
GI50 (LXFL 529): 33.3 µM (inactive)
GI50 (M19-MEL): 39.3 µM (inactive)
GI50 (KM-20L2): 23.8 µM (inactive)
GI50 (DLD-1): 35.6 µM (inactive)

Cc1ccc(Oc2ccccc2N)cc1
GI50 (RXF 631): > 100 µM (inactive)
GI50 (DMS-273): 32 µM (inactive)
GI50 (SNB-78): 29 µM (inactive)
GI50 (DMS-114): 17.4 µM (inactive)
GI50 (XF498): 17.8 µM (inactive)
GI50 (LXFL 529): 15.7 µM (inactive)
GI50 (KM-20L2): 12.7 µM (inactive)
GI50 (DLD-1): 35 µM (inactive)

CC[C@](C)(O)C(=O)O[C@H]1C(=O)O[C@@H]2C[C@H]3C(C)=CC(=O)[C@@H](O)[C@]3(C)[C@H]3[C@@]4(O)OC[C@]32[C@@H]1[C@@H](C)[C@H]4O [GLAUCARUBINONE]
GI50 (RXF 631): 0.543 µM (active)
GI50 (DMS-273): 0.05 µM (active)
GI50 (SNB-78): 0.0668 µM (active)
GI50 (LXFL 529): < 0.0111 µM (active)
GI50 (M19-MEL): 0.05 µM (active)
